Data published in US20240269139A1, “COMPOUNDS FOR TARGETED PROTEIN DEGRADATION OF KINASES” (DANA-FARBER CANCER INSTITUTE, INC., priority 2020, published 2024).
Read-outs that look alike come from different tables or passages of the source.

Experiments:
[1] = biological target: protein kinases (human kinome) (Homo sapiens, UniProt P04183); format: cell-based; conditions: TK1 (P04183); experiment wp168
[2] = biological target: protein kinases (human kinome) (Homo sapiens, UniProt P06239); format: cell-based; conditions: experiment wp168
[3] = biological target: protein kinases (human kinome) (Homo sapiens, UniProt P07947); format: cell-based; conditions: YES1 (P07947), experiment wp168
[4] = biological target: protein kinases (human kinome) (Homo sapiens, UniProt P11802); format: cell-based; conditions: experiment wp168
[5] = biological target: protein kinases (human kinome) (Homo sapiens, UniProt P12931); format: cell-based
[6] = biological target: protein kinases (human kinome) (Homo sapiens, UniProt P16591); format: cell-based
[7] = biological target: protein kinases (human kinome) (Homo sapiens, UniProt P35790); format: cell-based; conditions: CHKA P35790; experiment wp168
[8] = biological target: protein kinases (human kinome) (Homo sapiens, UniProt P41240); format: cell-based; conditions: experiment wp168
[9] = biological target: protein kinases (human kinome) (Homo sapiens, UniProt P45984); format: cell-based; conditions: MAPK9 P45984-1; experiment wp168
[10] = biological target: protein kinases (human kinome) (Homo sapiens, UniProt P49759); format: cell-based
[11] = biological target: protein kinases (human kinome) (Homo sapiens, UniProt P51451); format: cell-based
[12] = biological target: protein kinases (human kinome) (Homo sapiens, UniProt P53350); format: cell-based; conditions: PLK1 P53350; experiment wp168
[13] = biological target: protein kinases (human kinome) (Homo sapiens, UniProt P53667); format: cell-based; conditions: LIMK1 (P53667-1), experiment wp168
[14] = biological target: protein kinases (human kinome) (Homo sapiens, UniProt Q07912); format: cell-based
[15] = biological target: T1, protein kinases (human kinome) (Homo sapiens, UniProt Q8TAS1); format: cell-based; conditions: experiment wp168
T1 sequence (Q8TAS1 1-419): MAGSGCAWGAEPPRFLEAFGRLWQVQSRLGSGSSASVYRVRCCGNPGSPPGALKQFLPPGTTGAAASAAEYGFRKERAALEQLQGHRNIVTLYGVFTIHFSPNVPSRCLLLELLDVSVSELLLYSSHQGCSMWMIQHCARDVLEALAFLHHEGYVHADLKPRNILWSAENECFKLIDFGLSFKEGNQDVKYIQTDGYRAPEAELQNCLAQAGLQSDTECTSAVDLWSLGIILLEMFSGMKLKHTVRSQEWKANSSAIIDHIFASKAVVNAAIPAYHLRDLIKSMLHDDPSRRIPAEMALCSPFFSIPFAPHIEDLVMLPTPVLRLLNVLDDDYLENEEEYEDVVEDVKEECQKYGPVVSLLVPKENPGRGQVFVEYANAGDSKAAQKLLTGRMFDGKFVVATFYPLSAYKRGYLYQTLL

[16] = biological target: protein kinases (human kinome) (Homo sapiens, UniProt Q9H0K1); format: cell-based; conditions: experiment wp168
[17] = biological target: protein kinases (human kinome) (Homo sapiens, UniProt Q9HBH9); format: cell-based
[18] = tested on: protein kinases (human kinome); format: cell-based
[19] = biological target: extended human kinome (kinase-like proteins) (Homo sapiens, UniProt Q16875); experiment: Whole cell quantitative proteomics: extended kinome hits; conditions: Accession Q16875; experiment wp168
[20] = biological target: T2, protein kinases (human kinome) (Homo sapiens, UniProt O14965); format: cell-based
T2 sequence (O14965 1-403): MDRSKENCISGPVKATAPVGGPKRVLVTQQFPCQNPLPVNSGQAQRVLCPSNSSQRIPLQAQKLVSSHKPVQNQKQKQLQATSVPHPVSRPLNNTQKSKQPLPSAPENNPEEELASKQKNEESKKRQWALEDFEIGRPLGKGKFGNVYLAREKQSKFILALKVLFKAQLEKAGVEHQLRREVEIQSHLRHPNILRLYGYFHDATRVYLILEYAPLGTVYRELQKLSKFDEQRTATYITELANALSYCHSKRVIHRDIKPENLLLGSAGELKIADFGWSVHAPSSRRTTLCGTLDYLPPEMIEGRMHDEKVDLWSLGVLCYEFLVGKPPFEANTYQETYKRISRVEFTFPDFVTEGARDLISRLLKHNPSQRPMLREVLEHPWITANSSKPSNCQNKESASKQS

[21] = biological target: T3, protein kinases (human kinome) (Homo sapiens, UniProt P33981); format: cell-based; conditions: experiment wp164
T3 sequence (P33981 1-857): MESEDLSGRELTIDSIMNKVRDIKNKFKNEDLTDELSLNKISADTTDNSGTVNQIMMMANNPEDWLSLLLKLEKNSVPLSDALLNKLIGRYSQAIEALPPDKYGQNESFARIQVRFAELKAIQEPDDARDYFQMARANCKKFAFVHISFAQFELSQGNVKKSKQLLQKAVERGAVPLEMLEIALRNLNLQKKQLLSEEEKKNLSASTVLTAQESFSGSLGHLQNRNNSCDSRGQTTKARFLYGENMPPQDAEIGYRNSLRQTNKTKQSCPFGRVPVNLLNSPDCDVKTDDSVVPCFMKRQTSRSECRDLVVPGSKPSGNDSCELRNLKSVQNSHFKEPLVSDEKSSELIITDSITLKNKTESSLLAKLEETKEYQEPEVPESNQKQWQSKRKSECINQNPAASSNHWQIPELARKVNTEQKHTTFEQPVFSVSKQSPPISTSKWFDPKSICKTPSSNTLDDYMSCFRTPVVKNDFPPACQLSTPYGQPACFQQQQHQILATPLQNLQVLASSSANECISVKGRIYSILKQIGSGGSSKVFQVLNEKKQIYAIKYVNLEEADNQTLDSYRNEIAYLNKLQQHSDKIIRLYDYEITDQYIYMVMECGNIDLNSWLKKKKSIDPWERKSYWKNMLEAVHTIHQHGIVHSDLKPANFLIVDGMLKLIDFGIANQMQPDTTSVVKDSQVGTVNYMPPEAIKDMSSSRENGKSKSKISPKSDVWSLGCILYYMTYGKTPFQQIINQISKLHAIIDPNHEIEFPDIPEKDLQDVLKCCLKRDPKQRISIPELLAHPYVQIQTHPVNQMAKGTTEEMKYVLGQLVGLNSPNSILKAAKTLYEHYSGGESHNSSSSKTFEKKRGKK

[22] = biological target: protein kinases (human kinome) (Homo sapiens, UniProt P50750); format: cell-based; conditions: experiment wp164
[23] = biological target: protein kinases (human kinome) (Homo sapiens, UniProt Q00534); format: cell-based; conditions: for logFC CDK6: CDK6 (Q00534), direction down; for logFC of CDK6 (Q00534): down
[24] = biological target: protein kinases (human kinome) (Homo sapiens, UniProt Q2M2I8); format: cell-based
[25] = biological target: protein kinases (human kinome) (Homo sapiens, UniProt Q96GD4); format: cell-based; conditions: experiment wp164
[26] = biological target: protein kinases (human kinome) (Homo sapiens, UniProt Q9HBU6); format: cell-based; conditions: protein ETNK1 (Q9HBU6-1); experiment wp088; down
[27] = biological target: T4, protein kinases (human kinome) (Homo sapiens, UniProt Q9UEE5); format: cell-based; conditions: STK17A Q9UEE5; experiment wp088
T4 sequence (Q9UEE5 1-414): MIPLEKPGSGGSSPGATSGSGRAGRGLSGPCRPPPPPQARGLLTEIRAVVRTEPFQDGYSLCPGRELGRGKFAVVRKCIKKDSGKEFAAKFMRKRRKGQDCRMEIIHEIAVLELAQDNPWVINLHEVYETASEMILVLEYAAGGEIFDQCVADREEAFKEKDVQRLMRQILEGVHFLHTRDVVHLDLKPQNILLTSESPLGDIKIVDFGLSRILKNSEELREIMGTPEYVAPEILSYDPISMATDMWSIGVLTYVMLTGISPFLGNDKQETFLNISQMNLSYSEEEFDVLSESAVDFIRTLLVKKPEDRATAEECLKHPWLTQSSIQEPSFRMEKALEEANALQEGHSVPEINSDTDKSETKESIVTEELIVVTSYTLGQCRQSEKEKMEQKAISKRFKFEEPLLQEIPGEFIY

[28] = Experiment wp168, direction down
[29] = AURKB Q96GD4-5, experiment wp088

Chain of protein kinases (human kinome) (Homo sapiens, UniProt Q2M2I8) (Q2M2I8 whole entry): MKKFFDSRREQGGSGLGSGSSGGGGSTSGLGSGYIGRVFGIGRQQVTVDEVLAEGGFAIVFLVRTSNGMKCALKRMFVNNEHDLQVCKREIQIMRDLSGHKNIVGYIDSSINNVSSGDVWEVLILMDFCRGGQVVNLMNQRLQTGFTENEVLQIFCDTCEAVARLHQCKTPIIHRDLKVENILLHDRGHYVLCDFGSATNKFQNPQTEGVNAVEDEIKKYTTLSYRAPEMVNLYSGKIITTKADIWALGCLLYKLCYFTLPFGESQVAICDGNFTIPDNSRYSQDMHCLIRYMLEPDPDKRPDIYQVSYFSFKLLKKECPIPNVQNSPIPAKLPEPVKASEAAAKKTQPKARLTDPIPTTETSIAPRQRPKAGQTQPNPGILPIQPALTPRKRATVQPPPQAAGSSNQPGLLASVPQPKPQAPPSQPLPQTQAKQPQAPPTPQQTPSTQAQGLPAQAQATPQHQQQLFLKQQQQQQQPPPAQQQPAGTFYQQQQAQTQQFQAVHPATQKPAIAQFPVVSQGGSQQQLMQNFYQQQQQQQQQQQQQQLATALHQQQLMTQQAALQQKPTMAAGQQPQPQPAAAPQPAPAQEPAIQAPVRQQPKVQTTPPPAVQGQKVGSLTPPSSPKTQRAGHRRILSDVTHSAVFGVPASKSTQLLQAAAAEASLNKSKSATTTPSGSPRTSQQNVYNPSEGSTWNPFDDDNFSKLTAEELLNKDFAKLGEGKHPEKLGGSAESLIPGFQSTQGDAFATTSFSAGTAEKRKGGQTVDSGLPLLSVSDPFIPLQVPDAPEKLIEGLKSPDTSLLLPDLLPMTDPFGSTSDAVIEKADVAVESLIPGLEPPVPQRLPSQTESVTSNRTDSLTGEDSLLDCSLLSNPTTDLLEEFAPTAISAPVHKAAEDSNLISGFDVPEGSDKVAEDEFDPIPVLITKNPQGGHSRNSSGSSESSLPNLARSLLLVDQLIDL
Chain of protein kinases (human kinome) (Homo sapiens, UniProt Q00534) (Q00534 whole entry): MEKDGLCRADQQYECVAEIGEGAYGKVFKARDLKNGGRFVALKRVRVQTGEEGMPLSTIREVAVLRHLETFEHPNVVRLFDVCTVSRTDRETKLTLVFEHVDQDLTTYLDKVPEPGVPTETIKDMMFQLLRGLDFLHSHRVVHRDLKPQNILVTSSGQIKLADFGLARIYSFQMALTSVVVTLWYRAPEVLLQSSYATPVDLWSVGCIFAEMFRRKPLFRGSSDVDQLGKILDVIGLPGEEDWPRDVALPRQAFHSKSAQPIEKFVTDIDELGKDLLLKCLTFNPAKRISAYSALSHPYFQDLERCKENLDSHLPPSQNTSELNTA
Chain of protein kinases (human kinome) (Homo sapiens, UniProt P53350) (P53350 whole entry): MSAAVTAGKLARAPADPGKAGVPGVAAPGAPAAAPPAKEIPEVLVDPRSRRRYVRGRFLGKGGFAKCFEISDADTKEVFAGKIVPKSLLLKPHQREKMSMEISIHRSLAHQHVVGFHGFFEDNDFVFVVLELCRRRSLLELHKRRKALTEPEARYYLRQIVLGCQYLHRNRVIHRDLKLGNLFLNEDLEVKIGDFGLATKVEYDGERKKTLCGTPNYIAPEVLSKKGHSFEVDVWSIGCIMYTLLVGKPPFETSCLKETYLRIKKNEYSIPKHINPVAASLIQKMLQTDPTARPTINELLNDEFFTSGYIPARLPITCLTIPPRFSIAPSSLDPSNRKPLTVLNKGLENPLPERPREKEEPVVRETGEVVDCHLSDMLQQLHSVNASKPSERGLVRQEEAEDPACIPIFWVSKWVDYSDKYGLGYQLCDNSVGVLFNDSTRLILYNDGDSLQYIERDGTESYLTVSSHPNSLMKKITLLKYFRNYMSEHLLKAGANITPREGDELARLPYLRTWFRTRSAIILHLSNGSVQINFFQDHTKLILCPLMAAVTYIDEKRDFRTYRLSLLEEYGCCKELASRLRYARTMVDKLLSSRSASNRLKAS
Chain of protein kinases (human kinome) (Homo sapiens, UniProt Q07912) (Q07912 whole entry): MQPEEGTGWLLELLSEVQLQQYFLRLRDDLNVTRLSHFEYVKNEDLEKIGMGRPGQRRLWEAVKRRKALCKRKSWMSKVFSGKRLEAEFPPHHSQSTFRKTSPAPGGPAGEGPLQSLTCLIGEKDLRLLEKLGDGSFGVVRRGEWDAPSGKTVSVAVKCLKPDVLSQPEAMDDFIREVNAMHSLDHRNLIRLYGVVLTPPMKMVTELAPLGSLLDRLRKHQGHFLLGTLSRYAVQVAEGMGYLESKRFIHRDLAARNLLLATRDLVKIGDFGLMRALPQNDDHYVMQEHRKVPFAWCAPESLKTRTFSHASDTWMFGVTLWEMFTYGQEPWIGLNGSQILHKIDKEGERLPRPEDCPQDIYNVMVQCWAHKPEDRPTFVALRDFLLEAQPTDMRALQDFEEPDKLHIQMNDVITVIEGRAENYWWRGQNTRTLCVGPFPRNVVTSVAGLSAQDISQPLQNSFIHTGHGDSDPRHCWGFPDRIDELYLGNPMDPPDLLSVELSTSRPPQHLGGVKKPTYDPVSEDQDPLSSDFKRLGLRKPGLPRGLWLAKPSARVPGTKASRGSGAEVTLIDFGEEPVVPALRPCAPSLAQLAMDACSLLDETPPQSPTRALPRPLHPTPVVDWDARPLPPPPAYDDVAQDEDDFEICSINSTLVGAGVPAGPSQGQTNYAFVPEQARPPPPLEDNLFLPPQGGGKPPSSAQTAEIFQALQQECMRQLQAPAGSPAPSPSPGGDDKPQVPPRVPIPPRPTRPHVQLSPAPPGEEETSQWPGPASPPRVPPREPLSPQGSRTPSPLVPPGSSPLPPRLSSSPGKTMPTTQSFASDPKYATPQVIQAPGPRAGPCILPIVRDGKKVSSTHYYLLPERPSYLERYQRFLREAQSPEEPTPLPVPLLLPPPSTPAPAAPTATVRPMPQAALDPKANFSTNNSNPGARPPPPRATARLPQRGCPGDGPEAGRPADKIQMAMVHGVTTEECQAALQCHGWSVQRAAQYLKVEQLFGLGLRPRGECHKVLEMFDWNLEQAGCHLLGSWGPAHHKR
Chain of protein kinases (human kinome) (Homo sapiens, UniProt P53667) (P53667 whole entry): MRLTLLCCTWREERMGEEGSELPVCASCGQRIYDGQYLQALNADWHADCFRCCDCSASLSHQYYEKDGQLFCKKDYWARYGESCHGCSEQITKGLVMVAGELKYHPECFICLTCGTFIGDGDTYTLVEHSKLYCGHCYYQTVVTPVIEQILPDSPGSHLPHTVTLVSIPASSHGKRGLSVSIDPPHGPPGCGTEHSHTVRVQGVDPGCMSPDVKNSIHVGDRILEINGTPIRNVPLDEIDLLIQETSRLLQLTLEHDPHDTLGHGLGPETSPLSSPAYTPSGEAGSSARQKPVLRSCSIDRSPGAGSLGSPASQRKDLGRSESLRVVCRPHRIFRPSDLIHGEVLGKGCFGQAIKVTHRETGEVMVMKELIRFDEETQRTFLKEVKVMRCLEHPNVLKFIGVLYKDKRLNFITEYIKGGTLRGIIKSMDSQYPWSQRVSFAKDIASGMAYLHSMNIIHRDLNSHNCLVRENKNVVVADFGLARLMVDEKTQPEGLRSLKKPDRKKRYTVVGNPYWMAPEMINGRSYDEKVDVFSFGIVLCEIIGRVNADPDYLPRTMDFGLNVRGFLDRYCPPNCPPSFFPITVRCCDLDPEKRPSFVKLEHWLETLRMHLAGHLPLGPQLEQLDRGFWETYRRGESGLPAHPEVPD
Chain of protein kinases (human kinome) (Homo sapiens, UniProt P51451) (P51451 whole entry): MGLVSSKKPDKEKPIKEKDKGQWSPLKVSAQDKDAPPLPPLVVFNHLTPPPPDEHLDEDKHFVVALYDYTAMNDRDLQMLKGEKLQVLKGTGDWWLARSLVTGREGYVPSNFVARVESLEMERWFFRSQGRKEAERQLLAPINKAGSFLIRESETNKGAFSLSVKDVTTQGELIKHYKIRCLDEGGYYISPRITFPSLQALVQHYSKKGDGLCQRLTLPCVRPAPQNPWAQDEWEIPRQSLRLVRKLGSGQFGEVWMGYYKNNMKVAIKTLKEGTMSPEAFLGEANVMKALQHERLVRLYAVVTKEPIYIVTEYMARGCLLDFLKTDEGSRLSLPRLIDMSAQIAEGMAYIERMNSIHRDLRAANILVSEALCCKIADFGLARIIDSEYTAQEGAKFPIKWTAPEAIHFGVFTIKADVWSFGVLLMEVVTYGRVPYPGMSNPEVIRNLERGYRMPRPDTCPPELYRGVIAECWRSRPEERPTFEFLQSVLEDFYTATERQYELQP
Chain of protein kinases (human kinome) (Homo sapiens, UniProt P07947) (P07947 whole entry): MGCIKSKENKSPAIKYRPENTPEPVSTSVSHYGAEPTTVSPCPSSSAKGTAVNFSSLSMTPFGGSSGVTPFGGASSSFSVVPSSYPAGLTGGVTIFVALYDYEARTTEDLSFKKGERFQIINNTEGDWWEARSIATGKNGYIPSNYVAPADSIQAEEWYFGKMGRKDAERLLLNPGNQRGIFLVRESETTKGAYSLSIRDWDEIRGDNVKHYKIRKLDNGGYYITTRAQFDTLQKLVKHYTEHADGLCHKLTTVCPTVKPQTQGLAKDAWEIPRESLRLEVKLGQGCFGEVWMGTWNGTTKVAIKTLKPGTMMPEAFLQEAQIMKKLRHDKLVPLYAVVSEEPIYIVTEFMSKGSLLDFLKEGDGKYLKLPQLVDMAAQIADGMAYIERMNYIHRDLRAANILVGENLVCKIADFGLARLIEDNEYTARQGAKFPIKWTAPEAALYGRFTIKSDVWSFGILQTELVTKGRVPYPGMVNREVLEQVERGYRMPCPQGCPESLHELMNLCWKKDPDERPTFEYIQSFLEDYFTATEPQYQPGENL
Chain of protein kinases (human kinome) (Homo sapiens, UniProt P11802) (P11802 whole entry): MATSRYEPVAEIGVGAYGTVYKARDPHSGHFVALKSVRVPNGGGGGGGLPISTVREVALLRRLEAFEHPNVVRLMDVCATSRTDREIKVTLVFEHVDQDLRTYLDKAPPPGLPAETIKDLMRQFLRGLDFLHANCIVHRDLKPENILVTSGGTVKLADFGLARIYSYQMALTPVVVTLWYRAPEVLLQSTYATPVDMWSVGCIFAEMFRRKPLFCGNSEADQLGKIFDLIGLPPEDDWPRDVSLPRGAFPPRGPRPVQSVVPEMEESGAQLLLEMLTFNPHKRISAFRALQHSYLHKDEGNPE

Cc1ccc(NC(=O)c2cccc(C(F)(F)F)c2)cc1N1Cc2cnc(Nc3ccc(N4CCN(CCOc5cccc6c5C(=O)N(C5CCC(=O)NC5=O)C6=O)CC4)nc3)nc2N(C)C1=O (centres unmarked) [DB0661]
logFC [1]: −0.3523
logFC LCK ([2]; LCK P06239-1): −0.4717
logFC LCK ([2]; LCK, accession P06239-1, direction of change down): −0.4717
logFC [3]: −0.5229
logFC ([3]; direction down): −0.5229
logFC CDK4 (P11802) [4]: −0.4978
logFC of SRC ([5]; Accession P12931, experiment wp168): −0.6685
logFC of SRC (P12931) ([5]; Experiment wp168): −0.6685
logFC of FER (P16591-1) ([6]; Experiment wp168, down): −0.6143
logFC of FER ([6]; FER P16591-1, experiment wp168): −0.6143
logFC [7]: −0.3607
logFC of CSK ([8]; Accession P41240): −1.526
logFC CSK ([8]; CSK (P41240), down): −1.526
logFC [9]: −1.961
logFC MAPK9 [9]: −1.961
logFC CLK1 ([10]; CLK1 P49759, experiment wp168): −0.3319
logFC of CLK1 (P49759) ([10]; Experiment wp168): −0.3319
logFC BLK ([11]; BLK (P51451), direction down, experiment wp168): −1.428
logFC of BLK (P51451) ([11]; Experiment wp168, down): −1.428
logFC [12]: −0.3453
logFC PLK1 [12]: −0.3453
logFC LIMK1 ([13]; direction down): −1.116
logFC LIMK1 ([13]; down): −1.116
logFC TNK2 (Q07912-1) [14, 28]: −0.3873
logFC TNK2 ([14]; TNK2 (Q07912-1), experiment wp168): −0.3873
logFC UHMK1 ([15]; Accession Q8TAS1, direction down): −0.416
logFC UHMK1 ([15]; UHMK1 (Q8TAS1)): −0.416
logFC of SIK2 ([16]; Accession Q9H0K1): −0.3628
logFC SIK2 (Q9H0K1) ([16]; direction of change down): −0.3628
logFC MKNK2 (Q9HBH9-1) [17, 28]: −0.5094
logFC ([17]; MKNK2 (Q9HBH9-1), experiment wp168): −0.5094
logFC MAPK8 (P45983-4) [18, 28]: −0.5033
logFC MAPK8 ([18]; MAPK8 P45983-4, experiment wp168): −0.5033
logFC ([18]; PTK2B (Q14289-2), experiment wp168, direction down): −1.935
logFC PTK2B ([18]; PTK2B, accession Q14289-2, experiment wp168, direction of change down): −1.935
kinases the bifunctional compound degrades ([18]; as stated for the structure in the embodiments): BLK, CDK4, CLK1, CSK, FER, LCK, LIMK1, MAPK8, MAPK9, MKNK2, PLK1, PTK2B, SIKA2, SRC, TNK2, UHMK1, and YES1
Kinase hits ([18]; kinases significantly downregulated vs DMSO (fold change cutoff −1.25, P-value<0.01), ≤8 h, 0.1-5 μM degrader, 7 cell lines): BLK, CDK4, CLK1, CSK, FER, LCK, LIMK1, MAPK8, MAPK9, MKNK2, PLK1, PTK2B, SIKa2, SRC, TNK2, UHMK1, YES1
Total no. kinase hits ([18]; number of degraded kinases per library compound): 17
logFC PFKFB3 [19]: −0.4392

O=C(CCCCCCNC(=O)COc1cccc2c1C(=O)N(C1CCC(=O)NC1=O)C2=O)NCCOc1ccc(Nc2ncc3ccc(=O)n(C4CC5CCC4C5)c3n2)cc1 (centres unmarked) [SB1.G.194]
logFC AURKA (O14965) ([20]; experiment wp088): −1.175
logFC AURKA (O14965) ([20]; experiment wp164): −2.035
logFC TTK ([21]; Accession P33981): −0.4279
logFC TTK (P33981) [21]: −0.4279
logFC CDK9 (P50750) [22]: −0.8391
logFC of CDK9 (P50750) [22]: −0.8391
logFC CDK6 ([23]; experiment wp088): −0.4731
logFC CDK6 ([23]; experiment wp164): −1.23
logFC of CDK6 (Q00534) ([23]; Experiment wp088): −0.4731
logFC of CDK6 (Q00534) ([23]; Experiment wp164): −1.23
logFC AAK1 ([24]; AAK1 (Q2M218-1), experiment wp088, down): −0.3482
logFC AAK1 ([24]; AAK1 (Q2M218-1), experiment wp164, down): −0.379
logFC AAK1 ([24]; AAK1, accession Q2M218-1, experiment wp088, direction of change down): −0.3482
logFC AAK1 ([24]; AAK1, accession Q2M218-1, experiment wp164, direction of change down): −0.379
logFC AURKB ([25]; AURKB Q96GD4): −0.4883
logFC of AURKB (Q96GD4) [25]: −0.4883
logFC ETNK1 [26]: −0.3662
logFC [27]: −0.6434
logFC STK17A [27]: −0.6434
logFC [18, 29]: −0.3846
logFC AURKB [18, 29]: −0.3846
logFC FGFR2 (P21802-11) ([18]; Experiment wp088, direction of change down): −0.4804
logFC FGFR2 ([18]; protein FGFR2 (P21802-11), experiment wp088, down): −0.4804
